In the supplement of paper PMC11061612:

Experiments:
Experiment in all cases: combination Emax (second highest fraction inhibited in the dose matrix, 72 h); higher = more inhibition; extreme values may be limits of the assay
[1] = test system: COR-L105 (Lung Adenocarcinoma)
In short: (§1)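 Cell lines in DMEM/F12 or RPMI with 10% FBS were plated in 1536-well plates, held 24 hours at 37°C, 5% CO2, then given two-drug dose matrices for 72 hours (DMSO typically 0.2%). Viability was read by CellTiter-Glo 2.0 luminescence and scaled as inhibition from 0 (vehicle wells) to 1 (blank wells). Combination Emax is the second-highest inhibition in the matrix; Bliss excess is observed combination effect minus expected EA + EB − EA·EB, EA and EB being single-agent effects.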

[2] = test system: NCI-H1944 (Lung Adenocarcinoma)
In short: as §1

[3] = test system: SUP-HD1 (Hodgkin's Lymphoma)
In short: as §1

[4] = test system: SNU-1 (Gastric Carcinoma)
In short: as §1

[5] = test system: NCI-H835 (Other Solid Carcinomas)
In short: as §1

[6] = test system: SBC-3 (Small Cell Lung Carcinoma)
In short: as §1

[7] = test system: MG-63 (Osteosarcoma)
In short: as §1

[8] = test system: NCI-H2170 (Squamous Cell Lung Carcinoma)
In short: as §1

[9] = test system: CAL-85-1 (Breast Carcinoma)
In short: as §1

[10] = test system: RS4-11 (B-Lymphoblastic Leukemia)
In short: as §1

[11] = test system: BT-474 (Breast Carcinoma)
In short: as §1

[12] = test system: SCC90 (Head and Neck Carcinoma)
In short: as §1

[13] = test system: NCI-H1975 (Lung Adenocarcinoma)
In short: as §1

[14] = test system: HT-1197 (Bladder Carcinoma)
In short: as §1

[15] = test system: MDA-MB-175-VII (Breast Carcinoma)
In short: as §1

[16] = test system: SK-N-DZ (Neuroblastoma)
In short: as §1

[17] = test system: HT-3 (Cervical Carcinoma)
In short: as §1

[18] = test system: TK (B-Cell Non-Hodgkin's Lymphoma)
In short: as §1

[19] = test system: ATN-1 (T-Lymphoblastic Leukemia)
In short: as §1

[20] = test system: RPMI-8402 (T-Lymphoblastic Leukemia)
In short: as §1

Row | Compound | combination Emax [1] | combination Emax [2] | combination Emax [3] | combination Emax [4] | combination Emax [5] | combination Emax [6] | combination Emax [7] | combination Emax [8] | combination Emax [9] | combination Emax [10] | combination Emax [11] | combination Emax [12] | combination Emax [13] | combination Emax [14] | combination Emax [15] | combination Emax [16] | combination Emax [17] | combination Emax [18] | combination Emax [19] | combination Emax [20]
1 | CN(C)CCCOc1ccc(-c2ccc3ncc4c(c3c2)n(C2CCOCC2)c(=O)n4C)cn1 [AZD0156] + O=C(c1cc(Cc2n[nH]c(=O)c3ccccc23)ccc1F)N1CCN(C(=O)C2CC2)CC1 [Olaparib] (first compound max 3 µM, partner max 3 µM) | 0.358 | 0.49 | 0.166 | 0.182 | 0.224 | 0.465 | 0.548 | 0.437 | 0.172 | 0.497 | 0.27 | 0.138 | 0.39 | 0.121 | 0.198 | 0.373 | 0.321 | 0.18 | 0.393 | 0.666
2 | COc1nnc2ccc(N3CCC(c4ccc(OCCN5CCN(C)C(=O)[C@H]5C)cc4)CC3)nn12 [AZD5153] + C=CCn1c(=O)c2cnc(Nc3ccc(N4CCN(C)CC4)cc3)nc2n1-c1cccc(C(C)(C)O)n1 [AZD1775] (first compound max 1 µM, partner max 1 µM) | 0.474 | 0.84 | 0.783 | 0.737 | 0.582 | 0.767 | 0.671 | 0.735 | 0.598 | 0.979 | 0.526 | 0.714 | 0.728 | 0.724 | 0.432 | 0.987 | 0.553 | 0.97 | 0.98 | 1
3 | COc1nnc2ccc(N3CCC(c4ccc(OCCN5CCN(C)C(=O)[C@H]5C)cc4)CC3)nn12 [AZD5153] + CC1(C)CCC(CN2CCN(c3ccc(C(=O)NS(=O)(=O)c4ccc(NCC5CCOCC5)c([N+](=O)[O-])c4)c(Oc4cnc5[nH]ccc5c4)c3)CC2)=C(c2ccc(Cl)cc2)C1 [Venetoclax] (first compound max 1 µM, 7x7, partner max 1 µM) | 0.507 | 0.566 | 0.955 | 0.645 | 0.372 | 0.721 | 0.646 | 0.484 | 0.674 | 1 | 0.353 | 0.533 | 0.667 | 0.656 | 0.475 | 0.694 | 0.278 | 0.994 | 0.516 | 0.791
4 | C[C@@H]1COCCN1c1cc(C2([S@](C)(=N)=O)CC2)nc(-c2ccnc3[nH]ccc23)n1 [AZD6738] + C1CC(C1)(C(=O)[O-])C(=O)[O-].N.N.[Pt+2] [Carboplatin] (first compound max 10 µM, 7x7, partner max 10 µM) | 0.323 |  |  |  | 0.322 | 0.647 | 0.524 |  | 0.382 |  |  |  |  |  | 0.309 |  |  |  |  | 0.967
5 | C[C@@H]1COCCN1c1cc(C2([S@](C)(=N)=O)CC2)nc(-c2ccnc3[nH]ccc23)n1 [AZD6738] + Nc1ccn([C@@H]2O[C@H](CO)[C@@H](O)C2(F)F)c(=O)n1 [Gemcitabine] (first compound max 10 µM, 7x7, partner max 0.3 µM) | 0.543 |  |  |  | 0.446 | 0.97 | 1 |  | 0.726 |  |  |  |  |  | 0.529 |  |  |  |  | 1
6 | C[C@@H](Nc1cc(F)cc(F)c1)c1cc(C(=O)N(C)C)cc2c(=O)cc(N3CCOCC3)oc12 [AZD8186] + C1CN(CCC1(C(=O)N[C@@H](CCO)C2=CC=C(C=C2)Cl)N)C3=NC=NC4=C3C=CN4 [AZD5363] (first compound max 10 µM, 7x7, partner max 10 µM) | 0.41 |  |  |  | 0.525 | 0.446 | 0.694 |  | 0.214 |  |  |  |  |  | 0.573 |  |  |  |  | 0.588
7 | C[C@@H](Oc1cc(-c2cnn(C3CCNCC3)c2)cnc1N)c1c(Cl)ccc(F)c1Cl [Crizotinib] + CC1=C(C(=CC=C1)Cl)NC(=O)C2=CN=C(S2)NC3=CC(=NC(=N3)C)N4CCN(CC4)CCO [Dasatinib] (first compound max 10 µM, 7x7, partner max 2 µM) | 0.481 |  |  |  | 0.854 | 0.957 | 0.949 |  | 0.778 |  |  |  |  |  | 0.0779 |  |  |  |  | 0.971
8 | C[C@@H](Oc1cc(-c2cnn(C3CCNCC3)c2)cnc1N)c1c(Cl)ccc(F)c1Cl [Crizotinib] + Cn1cnc2c(F)c(Nc3ccc(Br)cc3Cl)c(C(=O)NOCCO)cc21 [Selumetinib] (first compound max 10 µM, 7x7, partner max 10 µM) | 0.472 |  |  |  | 0.646 | 0.97 | 0.672 |  | 0.412 |  |  |  |  |  | 0.267 |  |  |  |  | 0.99
9 | CS(=O)(=O)CCNCc1ccc(-c2ccc3ncnc(Nc4ccc(OCc5cccc(F)c5)c(Cl)c4)c3c2)o1 [Lapatinib] + Cn1cnc2c(F)c(Nc3ccc(Br)cc3Cl)c(C(=O)NOCCO)cc21 [Selumetinib] (first compound max 10 µM, 7x7, partner max 10 µM) | 0.682 |  |  |  | 0.257 | 0.321 | 0.453 |  | 0.85 |  |  |  |  |  | 0.993 |  |  |  |  | 0.924
10 | CS(=O)(=O)CCNCc1ccc(-c2ccc3ncnc(Nc4ccc(OCc5cccc(F)c5)c(Cl)c4)c3c2)o1 [Lapatinib] + NC1(c2ccc(-c3nc4ccn5c(=O)[nH]nc5c4cc3-c3ccccc3)cc2)CCC1 [MK-2206] (first compound max 10 µM, 7x7, partner max 10 µM) | 0.825 | 0.941 |  |  | 0.868 | 0.917 | 0.924 |  | 0.9 |  |  | 0.962 |  |  | 1 |  |  |  |  | 1
11 | O=C(c1cc(Cc2n[nH]c(=O)c3ccccc23)ccc1F)N1CCN(C(=O)C2CC2)CC1 [Olaparib] + CN(CC[C@H](CSC1=CC=CC=C1)NC2=C(C=C(C=C2)S(=O)(=O)NC(=O)C3=CC=C(C=C3)N4CCC(CC4)[C@H](C5=CC=CC=C5C6=CC=C(C=C6)Cl)O)S(=O)(=O)C(F)(F)F)CCO [AZD4320] (first compound max 10 µM, 7x7, partner max 1 µM) | 0.219 |  |  |  | 0.951 | 0.842 | 0.332 |  | 0.342 |  |  |  |  |  | 0.389 |  |  |  |  | 0.935
12 | O=C(c1cc(Cc2n[nH]c(=O)c3ccccc23)ccc1F)N1CCN(C(=O)C2CC2)CC1 [Olaparib] + COc1nnc2ccc(N3CCC(c4ccc(OCCN5CCN(C)C(=O)[C@H]5C)cc4)CC3)nn12 [AZD5153] (first compound max 10 µM, 7x7, partner max 1 µM) | 0.404 |  |  |  | 0.403 | 0.703 | 0.717 |  | 0.613 |  |  |  |  |  | 0.316 |  |  |  |  | 0.9
13 | O=C(c1cc(Cc2n[nH]c(=O)c3ccccc23)ccc1F)N1CCN(C(=O)C2CC2)CC1 [Olaparib] + Cc1c2c(nn1C)CSCc1cc(n(C)n1)CSc1cc(c3ccccc3c1)OCCCc1c(C(=O)O)n(C)c3c-2c(Cl)ccc13 [AZD5991] (first compound max 10 µM, 7x7, partner max 1 µM) | 0.0887 |  |  |  | 0.149 | 0.523 | 0.216 |  | 0.168 |  |  |  |  |  | 0.281 |  |  |  |  | 0.857
14 | CCc1c2c(nc3ccc(O)cc13)-c1cc3c(c(=O)n1C2)COC(=O)[C@]3(O)CC [SN-38] + O=C(c1cc(Cc2n[nH]c(=O)c3ccccc23)ccc1F)N1CCN(C(=O)C2CC2)CC1 [Olaparib] (first compound max 0.3 µM, 7x7, partner max 10 µM) | 0.401 | 0.634 | 0.895 | 0.926 | 0.268 | 0.979 | 0.896 | 0.969 | 0.702 |  |  | 0.632 | 0.545 | 0.35 | 0.649 |  | 0.979 |  | 1 | 1
15 | Cc1nc(-c2cn3c(n2)-c2ccc(-c4cnn(C(C)(C)C(N)=O)c4)cc2OCC3)n(C(C)C)n1 [Taselisib] + O=C(Nc1ccc2[nH]nc(-c3ccncc3)c2c1)[C@@H]1CCN(CC(=O)N2CCN(c3ccc(-c4ncccn4)cc3)CC2)C1 [SCH772984] (first compound max 10 µM, 7x7, partner max 5 µM) | 0.788 |  |  |  | 0.71 | 0.76 | 0.746 |  | 0.935 |  |  |  |  |  | 1 |  |  |  |  | 0.898
16 | CC1(C)CCC(CN2CCN(c3ccc(C(=O)NS(=O)(=O)c4ccc(NCC5CCOCC5)c([N+](=O)[O-])c4)c(Oc4cnc5[nH]ccc5c4)c3)CC2)=C(c2ccc(Cl)cc2)C1 [Venetoclax] + CS(=O)(=O)CCNCc1ccc(-c2ccc3ncnc(Nc4ccc(OCc5cccc(F)c5)c(Cl)c4)c3c2)o1 [Lapatinib] (first compound max 1 µM, 7x7, partner max 10 µM) | 0.587 |  |  |  | 0.294 | 0.183 | 0.302 |  | 0.657 |  |  |  |  |  | 0.937 |  |  |  |  | 0.839
